Here are results for 2 compounds from US20130023532A1, “INDAZOLYL-PYRIMIDINES AS KINASE INHIBITORS” (priority 2010, published 2013).

The test concerns the target T1, RIPK2 (Homo sapiens, UniProt O43353).
T1 construct: Full length FLAG His tagged RIPK2 was purified from a Baculovirus expression system; FLAG (N); 6His (N); made in house; host or cells: Spodoptera frugiperda (Sf9) insect cells, baculovirus
The test is described as follows: Fluorescent polarization based binding assay at the ATP binding pocket of RIPK2. Particulars: FP competition with fluorescently labeled ATP competitive ligand (5 nM); full length FLAG His tagged RIPK2; mean of a minimum of 2 experiments; read-out: mean pIC50 (converted). The source says:
A fluorescent polarization based binding assay was developed to quantitate interaction of novel test compounds at the ATP binding pocket of RIPK2, by competition with a fluorescently labeled ATP competitive ligand. Full length FLAG His tagged RIPK2 was purified from a Baculovirus expression system and was used at a final assay concentration of twice the KDapparent. A fluorescent labeled ligand (5-({[2-({[3-({4-[(5-hydroxy-2-methylphenyl)amino]-2-pyrimidinyl}amino)phenyl]carbonyl}amino)ethyl]amino}carbonyl)-2-(6-hydroxy-3-oxo-3H-xanthen-9-yl)benzoic acid, prepared as described below) was used at a final assay concentration of 5 nM. Both the enzyme and ligand were prepared in solutions in 50 mM HEPES pH7.5, 150 mM NaCl, 10 mM MgCl2, 1 mM DTT, and 1 mM CHAPS. Test compounds were prepared in 100% DMSO and 100 nL was dispensed to individual wells of a multiwell plate. Next, 5 ul RIPK2 was added to the test compounds at twice the final assay concentration, and incubated at room temperature for 10 minutes. […] Finally, samples were read on an instrument capable of measuring fluorescent polarization. Test compound inhibition was expressed as percent (%) inhibition of internal assay controls.
For concentration response experiments, normalized data were fit and pIC50 s determined using conventional techniques. […]

Structures are written as SMILES. Counter-ions that a name gives are not always drawn.

T1 sequence (O43353 whole entry): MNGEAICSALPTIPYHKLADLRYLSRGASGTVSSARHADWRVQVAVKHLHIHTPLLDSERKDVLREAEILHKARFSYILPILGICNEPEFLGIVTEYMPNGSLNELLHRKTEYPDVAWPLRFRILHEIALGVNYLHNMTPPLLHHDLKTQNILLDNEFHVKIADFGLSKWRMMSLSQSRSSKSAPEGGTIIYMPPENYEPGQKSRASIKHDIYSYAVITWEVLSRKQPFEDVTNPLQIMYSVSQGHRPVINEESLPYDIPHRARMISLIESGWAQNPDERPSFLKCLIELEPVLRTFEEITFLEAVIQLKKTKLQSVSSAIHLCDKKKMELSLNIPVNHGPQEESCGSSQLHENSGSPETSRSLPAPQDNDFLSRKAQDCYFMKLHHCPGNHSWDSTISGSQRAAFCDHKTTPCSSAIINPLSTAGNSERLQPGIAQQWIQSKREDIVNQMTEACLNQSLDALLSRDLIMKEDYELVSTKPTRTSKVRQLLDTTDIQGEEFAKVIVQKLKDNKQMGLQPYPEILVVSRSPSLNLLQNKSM

`COc1ccc2[nH]nc(Nc3ccnc(Nc4cc(OC)c(OC)c(OC)c4)n3)c2c1` [Example 12, N^4-[5-(methyloxy)-1H-indazol-3-yl]-N^2-[3,4,5-tris(methyloxy)phenyl]-2,4-pyrimidinediamine]: the IC50 was 7.94 nM. With `COc1ccc2[nH]nc(Nc3ccnc(Nc4ccc(F)c(S(C)(=O)=O)c4)n3)c2c1` [Example 27, N^2-[4-fluoro-3-(methylsulfonyl)phenyl]-N^4-[5-(methyloxy)-1H-indazol-3-yl]-2,4-pyrimidinediamine trifluoroacetate] the figure was 50.1 nM.
